Assay results published in patent publication US20230060581A1, “METHOD OF TREATING PANCREATIC CANCER” (CEDARS-SINAI MEDICAL CENTER, priority 2020, published 2023).
Entries after “also recorded” stand apart in the source; their conditions may differ. Like-named read-outs stand apart in the source and are kept apart here.

What was measured:
[1] = cited from earlier work; for dose absorbed: human
[2] = humans; cited from earlier work
UGT1A1 = biological target: T1, UGT1A1 (Homo sapiens, UniProt P22309); details: cited from earlier work
T1 sequence (P22309 26-533): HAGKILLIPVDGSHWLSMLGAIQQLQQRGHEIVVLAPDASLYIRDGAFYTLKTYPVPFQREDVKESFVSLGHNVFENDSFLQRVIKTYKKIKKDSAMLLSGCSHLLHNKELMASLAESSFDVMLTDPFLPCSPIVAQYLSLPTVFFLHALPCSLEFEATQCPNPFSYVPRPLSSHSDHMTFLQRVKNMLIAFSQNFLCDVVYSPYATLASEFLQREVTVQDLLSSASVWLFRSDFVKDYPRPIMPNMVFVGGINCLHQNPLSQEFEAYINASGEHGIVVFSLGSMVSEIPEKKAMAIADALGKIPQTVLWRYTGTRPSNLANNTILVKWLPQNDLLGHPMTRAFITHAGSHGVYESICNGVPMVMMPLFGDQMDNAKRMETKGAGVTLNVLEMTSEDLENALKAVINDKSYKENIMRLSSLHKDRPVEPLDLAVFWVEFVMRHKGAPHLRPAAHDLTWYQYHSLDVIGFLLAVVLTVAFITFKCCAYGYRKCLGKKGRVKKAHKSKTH

CYP1A2 and CYP2C19 = details: metabolic pathway contribution; cited from earlier work
P-gp and BCRP = details: in vitro; cited from earlier work
[3] = in vivo; cited from earlier work
[4] = tested on: CYP3A4, CYP2C19, and CYP2D6; details: in vitro, cited from earlier work
[5] = tested on: CYP1A2, CYP2B6, CYP2C8, CYP2C9, CYP3A4 and UGT1A1; details: cited from earlier work
CYP3A4 = CYP3A4 (Homo sapiens, UniProt P08684); details: cited from earlier work
[6] = tested on: CYP2B6, CYP2C9 and CYP3A4; details: human primary hepatocytes; cited from earlier work
[7] = tested on: P-gp, BCRP, OATP1B1, OATP1B3, OAT1, OAT3 and OCT2; details: in vitro, cited from earlier work
CYP3A = details: concomitant administration; cited from earlier work
BRAF ΔNVTAP deletion = details: patients with ΔNVTAP deletion, clinical case reports; cited from earlier work
[8] = biological target: BRAF N486_P490del (delta-NVTAP) (Homo sapiens, UniProt P15056, DEL486-490); details: experimentally, PMID: 26996308; cited from earlier work
[9] = tested on: BRAF-mutated pancreatic cancer; test: Response and progression-free survival on BRAF/MEK/ERK-directed therapy, retrospective clinical case series; assay type: in vivo, human; details: patients with fusion abnormalities, single agent trametinib
From the text: Each horizontal bar represents the time on therapy without disease progression (i.e. progression-free survival). […] Bars capped with arrows indicate lines of therapy that were continuing as of the last available progress note (censored event).
Individual patient charts were retrospectively reviewed, and clinical information was extracted.
Demographic, clinical descriptors, and outcomes data were collected under institution-specific IRB-approved protocols for each individual site. The data from each site was de-identified before being shared in a HIPAA-compliant database.
Demographic data, date of diagnosis, staging information, treatment history, and response to therapy were collected from all participating sites. Overall survival (OS) was calculated from the time of the patient's diagnosis of advanced PC (i.e. the date of recurrence following surgical resection or the date of initial diagnosis in the context of metastatic or unresectable disease) until death (survival event) or last follow-up (censored event). […] Progression-free survival (PFS) was calculated from the time of initiation of a therapy until discontinuation due to disease progression (survival event), cessation due to tolerability issues (censored event), or the last follow-up (censored event).
All survival analysis methods were implemented in an R/Bioconductor programming environment. […]

CYP3A4, sequence (P08684 whole entry): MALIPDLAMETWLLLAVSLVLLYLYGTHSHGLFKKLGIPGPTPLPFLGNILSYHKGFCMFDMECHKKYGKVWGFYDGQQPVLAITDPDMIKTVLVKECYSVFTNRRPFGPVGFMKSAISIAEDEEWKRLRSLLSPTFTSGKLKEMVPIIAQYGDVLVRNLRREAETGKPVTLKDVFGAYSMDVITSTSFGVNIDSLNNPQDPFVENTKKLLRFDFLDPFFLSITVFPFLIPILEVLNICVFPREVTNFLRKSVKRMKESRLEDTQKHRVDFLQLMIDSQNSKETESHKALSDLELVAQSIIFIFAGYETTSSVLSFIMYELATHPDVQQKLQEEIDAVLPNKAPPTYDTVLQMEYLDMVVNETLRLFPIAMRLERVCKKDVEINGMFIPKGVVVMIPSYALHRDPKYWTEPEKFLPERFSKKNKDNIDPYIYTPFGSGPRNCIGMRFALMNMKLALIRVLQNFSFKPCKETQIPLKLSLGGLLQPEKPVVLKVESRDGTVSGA
BRAF N486_P490del (delta-NVTAP), sequence (P15056 with tags, fused parts or gaps DEL486-490): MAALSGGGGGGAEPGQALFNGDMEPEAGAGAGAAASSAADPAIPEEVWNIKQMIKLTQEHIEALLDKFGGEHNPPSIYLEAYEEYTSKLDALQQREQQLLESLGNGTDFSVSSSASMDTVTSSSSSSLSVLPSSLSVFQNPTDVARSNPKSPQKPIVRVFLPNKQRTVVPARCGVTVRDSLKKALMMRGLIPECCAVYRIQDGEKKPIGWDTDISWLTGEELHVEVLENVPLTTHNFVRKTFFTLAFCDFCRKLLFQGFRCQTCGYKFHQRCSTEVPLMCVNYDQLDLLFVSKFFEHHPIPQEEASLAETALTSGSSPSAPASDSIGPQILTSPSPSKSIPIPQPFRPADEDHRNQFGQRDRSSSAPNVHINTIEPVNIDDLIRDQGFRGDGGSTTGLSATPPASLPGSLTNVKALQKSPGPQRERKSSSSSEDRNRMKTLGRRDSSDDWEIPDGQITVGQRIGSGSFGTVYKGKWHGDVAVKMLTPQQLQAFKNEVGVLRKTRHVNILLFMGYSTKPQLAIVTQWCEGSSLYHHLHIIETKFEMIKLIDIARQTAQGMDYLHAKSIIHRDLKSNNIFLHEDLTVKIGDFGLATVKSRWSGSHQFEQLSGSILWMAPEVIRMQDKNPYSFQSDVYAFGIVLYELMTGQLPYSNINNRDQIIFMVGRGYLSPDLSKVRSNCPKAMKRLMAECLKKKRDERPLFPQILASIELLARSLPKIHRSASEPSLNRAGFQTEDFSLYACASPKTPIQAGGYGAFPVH

For `Cn1cnc2c(F)c(Nc3ccc(Br)cc3F)c(C(=O)NOCCO)cc21` [Binimetinib], which dose absorbed [1] is on record?
The dose absorbed was “approximately 50%”.

What about the accumulation ([1]; in vivo) of the same compound?
Its accumulation is “approximately 1.5 fold”.

What about the “estimated renal clearance of unchanged drug” value ([1]; in vivo) of the same compound?
Its value is 6.3 % of total dose.

What about the “excretion of unchanged drug in feces” value ([1]; in vivo) of the same compound?
The value was 31.7%.

And the “excretion of unchanged drug in urine” value ([1]; in vivo)?
The value was 18.4%.

And the “time to steady state concentrations” value ([1]; in vivo)?
The value was no more than 15 days.

And the blood-to-plasma concentration ratio [2]?
The blood-to-plasma concentration ratio was 0.718.

And the “bound to plasma proteins” value [2]?
The value was 97.2%.

What about the “primary route of metabolism” value (UGT1A1; in vitro) of the same compound?
Its value is “primarily metabolized by glucuronidation through UGT1A1”.

What about the “glucuronidation via UGT1A1” value (UGT1A1; metabolic pathway contribution) of the same compound?
The value was “up to 61.2%”.

And the “N-dealkylation via CYP1A2 and CYP2C19” value (CYP1A2 and CYP2C19)?
The value was “up to 17.8%”.

What about the transporter substrate (P-gp and BCRP) of the same compound?
Its transporter substrate is “substrate of P-gp and BCRP; also recorded: substrate for P-gp and BCRP”.

What about the “known potential toxicities, Very Common (≥10%)” value [3] of the same compound?
Its value is “diarrhea, nausea, vomiting, fatigue, peripheral edema, increased AST, increased blood creatine phosphokinase, dermatitis acneiform, dry skin, pruritus, rash, decreased ejection fraction”.

Which results are given for `COC(=O)N[C@@H](C)CNc1nccc(-c2cn(C(C)C)nc2-c2cc(Cl)cc(NS(C)(=O)=O)c2F)n1` [Encorafenib]?
dose absorbed [1]: At least 86%; excretion, feces ([1]; in vivo): 39%; excretion, urine ([1]; in vivo): 47.2%; metabolising enzymes and pathway [4]: metabolized by CYP3A4 and to a lesser extent by CYP2C19; also recorded: N-dealkylation is the primary metabolic pathway; CYP3A4 (primary), CYP2C19, and CYP2D6 (minor) contribute to total oxidative clearance in human liver microsomes; metabolising enzymes and pathway ([4]; listed as encorafenib): mainly metabolized by CYP3A; reversible enzyme inhibition [5]: reversible inhibitor of CYP1A2, CYP2B6, CYP2C8, CYP2C9, CYP3A4 and UGT1A1; time-dependent enzyme inhibition (CYP3A4): time-dependent inhibitor of CYP3A4; enzyme induction [6]: induced CYP2B6, CYP2C9 and CYP3A4; transporter substrate (P-gp and BCRP): substrate of the transporter P-gp; transporter inhibition [7]: potent inhibitor of the renal transporters, OAT1, OAT3 and OCT2, and the hepatic transporters OATP1B1 and OATP1B3; transporter inhibition ([7]; listed as encorafenib): can potentially inhibit the transporters P-gp, BCRP, OATP1B1, OATP1B3, OAT1, OAT3 and OCT2 at clinical concentrations; effect of strong or moderate CYP3A inhibitors on exposure (CYP3A): may increase encorafenib plasma concentration

With `CC(C)(C)c1nc(-c2cccc(NS(=O)(=O)c3c(F)cccc3F)c2F)c(-c2ccnc(N)n2)s1` [dabrafenib] as the compound, how does the clinical activity (BRAF ΔNVTAP deletion) read?
Its clinical activity is “significant activity”.

And the “Implications for BRAF Inhibitors: dabrafenib sensitivity” value [8]?
The value was “sensitive;”.

With `CC(=O)Nc1cccc(-n2c(=O)n(C3CC3)c(=O)c3c(Nc4ccc(I)cc4F)n(C)c(=O)c(C)c32)c1` [trametinib] as the compound, how does the “patients having disease control” value [9] read?
The value was 4/6.
